Consider one molecule from patent US5059601A, “Imidazolone derivatives with activity on central nervous system and antihypertensive activity, preparation methods thereof, and pharmaceutical compositions containing them” (Istituto Lusofarmaco d'Italia S.p.A., priority 1989, dated 1991).

Structures are written as SMILES. Some results are limits rather than exact numbers.

The nature of data set [1]: toxicity in rat (DL50, oral). To be noted: in vivo, read-out: toxicity in rat expressed as DL50.
The subject of a further data set is SHR rat. Briefly: antihypertensive activity in SHR rat after oral administration. The class given is in vivo. The note with it: dose of 10 mg/kg/os. From the text: Said compounds have in vitro good affinity against D2, 5-HT2, α1 receptors determined towards [3H]Spiperone, [3H]-ketanserine, and [3H]-prazosine respectively, using the methods described by Y.Z. Fields, R.D. Reisine, H.I. Yamamura, Brain Research 136, 578 (1977); Y.E. Leysen, C.Y.E. Nyemegers, Y.M. Van Neuten, P.M. Endladurong, Mol Pharmacol. 21, 322 (1981); P. Greengrass, R. Bremner, Eur. J. Pharmacol. 55, 323 (1979). They show a reduced toxicity in vivo, a good activity on central nervous system in various behaviour tests (e.g. stereotypy caused by apomorfine, central dopaminergic neuronal firing) and a good antihypertensive activity (determined in SHR rat after oral administration using the method reported by J. Pfeffer and others, J. Lab. Clin. Med. 78, 957 (1971)).

`COc1ccccc1N1CCN(CCc2[nH]c(=O)[nH]c2-c2ccc(F)cc2)CC1` [4-(4-fluorophenyl)-1,3-dihydro-5-[2-(4-(2-methoxyphenyl)-1-piperazinyl)ethyl]-2H-imidazol-2-one]: the LD50 in data set [1] is more than 2000 mg/kg. In the data set with SHR rat, the “decrease in systolic pressure” value is “about 21%”.
